The subject of experiment [1] is LH blood hormone level. Briefly: LH blood level under conventional GnRH antagonist injection protocol (Example 1). In kind it is in vivo, female patients. Here is the method:
Five female patients were treated with a GnRH antagonist protocol requiring injections of medications.
One patient, patient no. 1, was injected with 150 Units of FSH on days 3 to 12; half a syringe of 150 mcg/0.5 mL of ganirelix acetate on days 11 and 12; and 50 mg of clomiphene citrate on days 3 to 12; and 2.5 mg of letrozole on days 3 to 7. Luteinizing hormone (LH) blood level was 4.3 mIU/mL on day 10 and dropped to 2 mIU/mL on day 12.
A second patient, patient no. 2, was injected with 75 Units of FSH on days 4 to 12 and 150 Units on day 13; half a syringe of 150 mcg/0.5 mL of ganirelix acetate on days 11 to 13; 50 mg of clomiphene citrate on days 10 to 12, and 2.5 mg of letrozole on days 3 to 7. Luteinizing hormone (LH) blood level was 12.0 mIU/mL on day 11 and dropped to 6.3 mIU/mL on day 13.
Three patients, numbered 3 to 5, were injected with 75, 150 and 225 Units of FSH, respectively, on days 4 to 12 and one third a syringe of 150 mcg/0.5 mL of ganirelix acetate on days 11 to 13. Patient no. 3 received 50 mg of clomiphene citrate on days 4 to 12, and 2.5 mg of letrozole on days 4 to 8. Patient no. 4 received 100 mg of clomiphene citrate and 2.5 mg of letrozole on days 4 to 8, and 50 mg of clomiphene citrate on days 9 to 11. Patient no. 5 received no clomiphene citrate or letrozole. Luteinizing hormone (LH) blood level was 12.0, 18.0 and 14.6 mIU/mL, respectively, on day 10 and dropped to 4.9, 16.0 and 14.1 mIU/mL, respectively, on day 12.
Table 2 below provides a comparison of the efficacy of conventional Ganirelex/Cetrotide injectables treatment for IVF in the five representative patients from Example 1 with the home controlled ovarian hyperstimulation method described herein in the five representative patients from Example 2.

The subject of experiment [2] is LH blood hormone level. Briefly: LH blood level under home controlled ovarian hyperstimulation method with vaginal elagolix (Example 2). In kind it is in vivo, female patients. Conditions: lower dose of elagolix taken as a vaginal suppository instead of orally. Here is the method: On day 9 of the menstrual cycle, the patient is directed to orally take 50 to 150 mg, preferably 100 mg, (one, two, or three 50 mg oral tablets) of clomiphene citrate and to either insert vaginally or take orally, depending on the patient's preference, a gonadotropin-releasing hormone (GnRH) antagonist such as elagolix (marketed as ORILISSA®), instead of the expensive injections of ganirelix acetate (GANIRELEX®) or cetrorelix acetate (marketed as CETROTIDE®) used routinely in conventional practices. A dose of 25 mg (⅛^th of a pill) up to 200 mg of elagolix (1 full pill), preferably 25 mg, will be used, with the dose being the same whether inserted vaginally or taken orally. Elagolix is a GnRH antagonist that is conventionally used in the treatment of pain associated with endometriosis in women, not for the treatment of infertility. By blocking the GnRH receptor, elagolix suppresses LH release by the pituitary gland and thus prevents LH surge. Ultimately, elagolix suppresses gonadal steroid production, thereby reducing circulating levels of sex hormones such as progesterone, estradiol, and testosterone. Elagolix is generally an oral medication (oral tablet), however in the present method, elagolix is a tablet taken mainly as a vaginal suppository, but may be taken orally based on the patient's preference. […]

Values joined by “and” are separate entries in the source; they are usually repeats but may differ in a detail not shown here. Equal entries are not always repeated. Square brackets hold non-standard residues; d marks the D form. Peptide text beside a SMILES is read from it. d(hArg(Et2)) = CCN=C(NCC)NCCCC[C@@H](N)C(=O)O; hArg(Et2) = CCN=C(NCC)NCCCC[C@H](N)C(=O)O; dPhe(4-Cl) = N[C@H](Cc1ccc(Cl)cc1)C(=O)O; d2Nal = N[C@H](Cc1ccc2ccccc2c1)C(=O)O; d3Pal = N[C@H](Cc1cccnc1)C(=O)O

Consider `CCN=C(NCC)NCCCC[C@H](NC(=O)[C@H](CC(C)C)NC(=O)[C@@H](CCCCNC(=NCC)NCC)NC(=O)[C@H](Cc1ccc(O)cc1)NC(=O)[C@H](CO)NC(=O)[C@@H](Cc1cccnc1)NC(=O)[C@@H](Cc1ccc(Cl)cc1)NC(=O)[C@@H](Cc1ccc2ccccc2c1)NC(C)=O)C(=O)N1CCC[C@H]1C(=O)N[C@H](C)C(N)=O` [Ganirelex, ganirelix acetate] (Ac-[d2Nal][dPhe(4-Cl)][d3Pal]SY[d(hArg(Et2))]L[hArg(Et2)]P[dA]-NH2), for which the “LH blood hormone level AFTER medication intake” value in the experiment on LH blood hormone level [1] (Example 1, one value per patient (patients 1-5), after ganirelix injections, listed as Conventional Ganielex/Cetrotide Injectables) is 2.0 mIU/mL and 6.3 mIU/mL and 4.9 mIU/mL and 16.0 mIU/mL. In addition, the “LH blood hormone level BEFORE medication intake” value in the experiment with LH blood hormone level [1] (Example 1, one value per patient (patients 1-5), before ganirelix injections, listed as Conventional Ganielex/Cetrotide Injectables) was 4.3 mIU/mL and 12.0 mIU/mL (2×) and 18.0 mIU/mL. The “% Drop in blood LH hormone level” value in the experiment with LH blood hormone level [1] (Example 1, one value per patient (patients 1-5), listed as Conventional Ganielex/Cetrotide Injectables) stood at 3.4%. Besides, the “Luteinizing hormone (LH) blood level” value with LH blood hormone level [1] (patient no. 1, day 10, half a syringe of 150 mcg/0.5 mL ganirelix acetate on days 11 and 12) worked out at 4.3 mIU/mL; in the experiment with LH blood hormone level [1] (patient no. 1, day 12, half a syringe of 150 mcg/0.5 mL ganirelix acetate on days 11 and 12), 2 mIU/mL; with LH blood hormone level [1] (patient no. 2, day 11, half a syringe of 150 mcg/0.5 mL ganirelix acetate on days 11 to 13), 12.0 mIU/mL; in the experiment with LH blood hormone level [1] (patient no. 2, day 13, half a syringe of 150 mcg/0.5 mL ganirelix acetate on days 11 to 13), 6.3 mIU/mL; in the experiment with LH blood hormone level [1] (patient no. 3, day 10, one third a syringe of 150 mcg/0.5 mL ganirelix acetate on days 11 to 13) it was 12.0 mIU/mL; in the experiment with LH blood hormone level [1] (patient no. 3, day 12, one third a syringe of 150 mcg/0.5 mL ganirelix acetate on days 11 to 13), 4.9 mIU/mL. In addition, the “Luteinizing hormone (LH) blood level” value in the experiment with LH blood hormone level [1] (patient no. 4, day 10, one third a syringe of 150 mcg/0.5 mL ganirelix acetate on days 11 to 13) was 18.0 mIU/mL; in the experiment with LH blood hormone level [1] (patient no. 4, day 12, one third a syringe of 150 mcg/0.5 mL ganirelix acetate on days 11 to 13), 16.0 mIU/mL; in the experiment with LH blood hormone level [1] (patient no. 5, day 10, one third a syringe of 150 mcg/0.5 mL ganirelix acetate on days 11 to 13, no clomiphene citrate or letrozole), 14.6 mIU/mL; in the experiment on LH blood hormone level [1] (patient no. 5, day 12, one third a syringe of 150 mcg/0.5 mL ganirelix acetate on days 11 to 13, no clomiphene citrate or letrozole) it was 14.1 mIU/mL. Further, the “drop in LH blood hormone levels” value in the experiment on LH blood hormone level [1] (patient no. 1, day 10 to day 12) is listed as 53.5%; with LH blood hormone level [1] (patient no. 2, day 11 to day 13), 47.5%; with LH blood hormone level [1] (patient no. 3, day 10 to day 12), 59.25%; with LH blood hormone level [1] (patient no. 4, day 10 to day 12) it was 11.1%; in the experiment on LH blood hormone level [1] (patient no. 5, day 10 to day 12) it was 3.4%.

For the molecule `COc1cccc(-c2c(C)n(Cc3c(F)cccc3C(F)(F)F)c(=O)n(C[C@H](NCCCC(=O)O)c3ccccc3)c2=O)c1F` [elagolix], in the experiment with LH blood hormone level [2], the “effectiveness as GnRH antagonist in the patients” value is “effective GnRH antagonist”.

The record behind these values is patent publication US20200346047A1, “METHOD AND KIT FOR HOME CONTROLLED OVARIAN STIMULATION FOR IN VITRO FERTILIZATION” (priority 2019, published 2020).
